Data set [1] deals with ATP-binding cassette sub-family C member 2 (Rattus norvegicus, UniProt Q63120). As to the kind of experiment: TP_TRANSPORTER: inhibition of DNP-SG uptake in bile canalicular membrane vesicles from SD rat. Type of data set: functional, cell membranes, Sprague-Dawley, Bile canalicular membrane vesicle.
Substrate in data set [2]: Nc1nc(N)c2nc(CN3CCSc4cc(C(=O)NC(CCCC(=O)O)C(=O)O)ccc43)cnc2n1
The data set can be described thus: TP_TRANSPORTER: uptake in bile canalicular membrane vesicles from SD rat. The format is functional, cell membranes, Sprague-Dawley, Bile canalicular membrane vesicle.

The Ki is a measure of affinity in units of concentration, obtained from inhibition or displacement. By Km is commonly meant the substrate concentration at which the rate is half of its maximum.

In the case of `Nc1nc(N)c2nc(CN3CCSc4cc(C(=O)NC(CCCC(=O)O)C(=O)O)ccc43)cnc2n1` (configuration not stated), in data set [1], the inhibition constant Ki came to 162 µM.

B1: ATP-binding cassette sub-family C member 2 (Rattus norvegicus) (protein)
chain: MDKFCNSTFWDLSLLESPEADLPLCFEQTVLVWIPLGFLWLLAPWQLYSVYRSRTKRSSITKFYLAKQVFVVFLLILAAIDLSLALTEDTGQATVPPVRYTNPILYLCTWLLVLAVQHSRQWCVRKNSWFLSLFWILSVLCGVFQFQTLIRALLKDSKSNMAYSYLFFVSYGFQIVLLILTAFSGPSDSTQTPSVTASFLSSITFSWYDRTVLKGYKHPLTLEDVWDIDEGFKTRSVTSKFEAAMTKDLQKARQAFQRRLQKSQRKPEATLHGLNKKQSQSQDVLVLEEAKKKSEKTTKDYPKSWLIKSLFKTFHVVILKSFILKLIHDLLVFLNPQLLKLLIGFVKSSNSYVWFGYICAILMFAVTLIQSFCLQSYFQHCFVLGMCVRTTVMSSIYKKALTLSNLARKQYTIGETVNLMSVDSQKLMDATNYMQLVWSSVIQITLSIFFLWRELGPSILAGVGVMVLLIPVNGVLATKIRNIQVQNMKNKDKRLKIMNEILSGIKILKYFAWEPSFQEQVQGIRKKELKNLLRFGQLQSLLIFILQITPILVSVVTFSVYVLVDSANVLNAEKAFTSITLFNILRFPLSMLPMVTSSILQASVSVDRLERYLGGDDLDTSAIRRVSNFDKAVKFSEASFTWDPDLEATIQDVNLDIKPGQLVAVVGTVGSGKSSLVSAMLGEMENVHGHITIQGSTAYVPQQSWIQNGTIKDNILFGSEYNEKKYQQVLKACALLPDLEILPGGDMAEIGEKGINLSGGQKQRVSLARAAYQDADIYILDDPLSAVDAHVGKHIFNKVVGPNGLLAGKTRIFVTHGIHFLPQVDEIVVLGKGTILEKGSYRDLLDKKGVFARNWKTFMKHSGPEGEATVNNDSEAEDDDDGLIPTMEEIPEDAASLAMRRENSLRRTLSRSSRSSSRRGKSLKNSLKIKNVNVLKEKEKEVEGQKLIKKEFVETGKVKFSIYLKYLQAVGWWSILFIILFYGLNNVAFIGSNLWLSAWTSDSDNLNGTNNSSSHRDMRIGVFGALGLAQGICLLISTLWSIYACRNASKALHGQLLTNILRAPMRFFDTTPTGRIVNRFSGDISTVDDLLPQTLRSWMMCFFGIAGTLVMICMATPVFAIIIIPLSILYISVQVFYVATSRQLRRLDSVTKSPIYSHFSETVTGLPIIRAFEHQQRFLAWNEKQIDINQKCVFSWITSNRWLAIRLELVGNLVVFCSALLLVIYRKTLTGDVVGFVLSNALNITQTLNWLVRMTSEAETNIVAVERISEYINVENEAPWVTDKRPPADWPRHGEIQFNNYQVRYRPELDLVLKGITCNIKSGEKVGVVGRTGAGKSSLTNCLFRILESAGGQIIIDGIDVASIGLHDLRERLTIIPQDPILFSGSLRMNLDPFNKYSDEEVWRALELAHLRSFVSGLQLGLLSEVTEGGDNLSIGQRQLLCLGRAVLRKSKILVLDEATAAVDLETDSLIQTTIRKEFSQCTVITIAHRLHTIMDSDKIMVLDNGKIVEYGSPEELLSNRGSFYLMAKEAGIENVNHTEL
In the case of B1, the Km in data set [2] is 207 µM.

(Values after ChEMBL document CHEMBL2073856, “Carrier-mediated hepatobiliary transport of a novel antifolate, N-[4-[(2,4-dianninopteridine-6-yl)methyl]-3,4-dihydro-2H-1,4-benzothiazin-7-yl]carbonyl-L-homoglutamic acid, in rats” (Drug Metab Dispos, 2001).)
